Consider six compounds from patent publication EP1056700B1, “MEDICINAL USES OF PHENYLALKANOLS AND DERIVATES” (ZingoTX Pty Ltd, priority 1997, dated 1999).

The target of data set [1] is T1, Lipoxygenase (LP) (Rattus norvegicus, UniProt P12527).
T1 construct: cell-free enzyme (Wong et al, 1991) prepared from rat basophilic leukemia (RBL) 2H3 cell lines; endogenous in cells; host or cells: RBL 2H3 (rat basophilic leukemia), 15,000 g supernatant of cells disrupted by nitrogen cavitation
T1 sequence (P12527 1-673): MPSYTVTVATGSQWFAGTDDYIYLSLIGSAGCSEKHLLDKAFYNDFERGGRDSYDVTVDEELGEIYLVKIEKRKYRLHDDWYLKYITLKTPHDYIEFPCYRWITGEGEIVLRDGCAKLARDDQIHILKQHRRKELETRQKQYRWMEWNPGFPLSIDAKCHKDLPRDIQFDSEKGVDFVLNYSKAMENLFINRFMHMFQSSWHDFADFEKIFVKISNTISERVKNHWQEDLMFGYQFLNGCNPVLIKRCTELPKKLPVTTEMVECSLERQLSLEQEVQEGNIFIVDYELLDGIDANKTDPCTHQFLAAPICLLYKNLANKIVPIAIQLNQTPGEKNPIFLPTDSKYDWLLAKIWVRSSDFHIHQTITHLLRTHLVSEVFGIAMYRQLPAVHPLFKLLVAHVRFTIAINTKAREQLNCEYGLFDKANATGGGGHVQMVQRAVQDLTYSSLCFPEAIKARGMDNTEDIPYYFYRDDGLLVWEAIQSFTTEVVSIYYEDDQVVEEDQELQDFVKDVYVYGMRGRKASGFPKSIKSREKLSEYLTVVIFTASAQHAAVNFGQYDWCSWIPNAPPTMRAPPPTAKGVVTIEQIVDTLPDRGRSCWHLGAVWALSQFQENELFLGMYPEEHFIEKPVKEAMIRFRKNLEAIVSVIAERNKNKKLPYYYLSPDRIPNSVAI
The experiment in a line: Lipoxygenase assay with cell-free enzyme from RBL 2H3 cells (EIA). The data set is classed as biochemical. Conditions: final concentration of 10 µM. The method, then: Lipoxygenase (LP) assay was performed with cell-free enzyme (Wong et al, 1991) prepared from rat basophilic leukemia (RBL) 2H3 cell lines. Cells were cultured in EMEM containing 10% fetal calf serum and antibiotic until cells reached confluence. Harvested cells were resuspended in Hepes (10 mM) buffer, pH 7.4, containing 1 mM EDTA at 1 x 10^7 cells/ml, and disrupted by nitrogen cavitation using a Parr bomb at 750 psi for 15 min. The broken cells were centrifuged at 15,000 g for 30 min. Aliquots (0.1 ml) of the supernatant were preincubated with or without drugs in Hepes buffer (10 mM Hepes, pH 7, 1 mM EDTA and 150 mM NaCl) for 5 min, and the reaction was initiated with the addition of 50 µl of CaCl2 (16 mM), 50 µl of ATP (2 mM), 5 µl of PAF (2.5 mg/ml) and 5 µl of AA (2.5 mM). The reaction mixture ([…]) was incubated at room temperature for a further 8 min, then diluted with EIA buffer at 1/200 and 1/2000 dilutions and stored on ice for EIA following the protocol provided with the kit.
Validation of LP enzyme activity was carried out by a UV spectrophotometric method in which the enzyme activity was characterised against various concentrations of Ca^2+, ATP, PAF and AA with the measurement of the formation of diene conjugated products of LP at 235 nm.
All compounds were dissolved in DMSO and assayed at a final concentration of 10 µM. NDGA was used as reference compound. The concentration of DMSO in the assay was maintained at 1.5%.

In data set [2] the test system is Cyclo-oxygenase (COX). The experiment in a line: Cyclo-oxygenase assay in RBL 2H3 cells (PGD2 EIA). It is filed as cell-based, rat. Particulars: final concentration of 10 µM. The method, then: Cyclo-oxygenase (COX) assay was performed with cells in culture prepared from rat basophilic leukemia (RBL) 2H3 cell lines. Cells were cultured in EMEM containing 10% fetal calf serum and antibiotic until cells reached confluence. Harvested cells were subsequently seeded on 24-well plates at 1 x 10^6 cells/ml then incubated at 37°C for 3 hours. Cells were washed twice with incubation buffer (1.5 ml) containing 5 mM Hepes, 140 mM NaCl, 5 mM KCl, 0.6 mM MgCl2, 1 mM CaCl2 and […]. Cells were then covered with 0.49 ml of buffer, followed by addition of samples/solvents (0.005 ml) and incubated at 37 °C for 5 min on an orbital shaker. Arachidonic acid (0.005 ml, containing 50% EtOH) was subsequently added, and the plate was incubated at similar conditions for a further 10 min. The supernatant (0.1 ml) was aliquoted for methoxime derivatisation of PGD2, which was carried out by heating the supernatant with methoxime solution (1:1) at 60 °C for 30 min according to the instructions provided with the kit. The resultant solution was diluted with EIA buffer and stored on ice for EIA, following the protocol provided with the kit.
Validation of COX enzyme activity was carried out using EIA in which the enzyme activity was characterised against various concentrations of AA and a time course of enzyme activity.
[…] Indomethacin was used as reference compound. The concentration of DMSO in the assay was maintained at 1.5%.

For data set [3], the system named is Platelet rich plasma. The experiment in a line: Platelet aggregation: [^3H]-serotonin release from platelet rich plasma, arachidonic acid initiated. It is filed as cell-based. Particulars: Homo sapiens, activation by EC50 concentration of arachidonic acid. The protocol: Blood was collected from healthy volunteers who had taken no medication in the previous two weeks. The anticoagulant used was 3.8 % trisodium citrate. Platelet rich plasma was prepared and incubated with [^3H]-serotonin. This was followed by addition of gingerol analogues. Platelet activation was initiated using the EC50 concentration for arachidonic acid. The percentage of [^3H]-serotonin release was measured using a liquid scintillation counter. Then, dose-response curves were established and IC50 values were obtained.

Data set [4] concerns DRG neuronal cells. The experiment in a line: Peak [Ca^2+]i transients in cultured dorsal root ganglion neurons (Fura-2). The data set is classed as cell-based, rat. Particulars: 10 µM applied for 1 min, 2 mM Ca^2+. The protocol:
DRG from neonatal (3-5 days old) rat or adult Sprague-Dawley rats were incubated in Hanks CMF saline with 0.05% collagenase and 0.25% trypsin for 25 min at 37° C. Individual cells were obtained by trituration with fire polished Pasteur pipettes of diminishing diameters. Neurones were isolated from the cell suspension in 30% Percoll and then plated on collagen coated coverslips or in 24-well plates, then cultured in neurobasal medium with B27 supplement, 50 ng/ml 2.5 S nerve growth factor, 2 mM 1-glutamine and 100 U/ml penicillin/streptomycin. Cultures were maintained at 37° C with 5% CO2. 30% Percoll increases the percentage of capsaicin-sensitive DRG neurones up to 70%. For peak [Ca^2+]i transients measurements, cells on coverslips were incubated with 5 µM Fura-2 AM for 30 min at 37° C. The coverslips were then mounted on a chamber attached to a fast sample application perfusion system which allows changing solutions in the second range. Recordings were made on the stage of a Nikon Diaphot inverted microscope fitted with a Nikon 40 x Fluo (NA 0.85) DL Ph3 or 40 x Fluo (NA 1.3) oil objective. [Ca^2+]i was calculated from dual excitation wavelength (340/380 nm) fluorescence measurements following an intracellular calibration procedure by the Grynkiewicz equation, using MCID M2/M4 v.3.0 (Imaging Res. Inc.) software. Cells were continuously perfused with a solution consisting of 140 mM NaCl, 2 mM CaCl2, 5 mM KCl, 20 mM HEPES, 10 mM glucose, pH 7.4. To study KCl evoked depolarisation, 50 mM NaCl was replaced by equimolar KCl. Cytoplasmic localisation of Fura-2 was tested with the Mn^2+ quenching technique (Dedov and Roufogalis, 1998). All experiments were performed at room temperature (20-23°C).
Typical changes in [Ca^2+]i upon depolarisation were evoked by 50 mM KCl and by application of 1 µM capsaicin; both were applied for 30 sec. Capsaicin-evoked peak [Ca^2+]i transients are characterised by a fast rise and long-steady state [Ca^2+]i clearance from the cytoplasm. In capsaicin-sensitive cells the half-time of cytoplasmic Ca^2+ clearance was proportional to the amplitudes of peak [Ca^2+]i transients.
To examine the effect of gingerol derivatives, one or several compounds in succession at a concentration of 10 µM were applied for 1 min to the DRG neuronal cells followed by washing out for 4 min with physiological solution. To the capsaicin-sensitive cells, 10 µM capsaicin and 50 mM KCl were applied, respectively, to confirm the viability of the cells. In addition, morphological appearances of the cells were also examined at the end of experiment. […]

Data set [5] concerns rat mesenteric artery. Kind of data set: Vasodilation on rat mesenteric small arteries. The text has this:
Small arteries (200-300 µm in diameter) isolated from rat mesentery were precontracted with endothelin prior to addition of the test substances and tested for relaxation.

Data set [6] relates to guinea pig atria. Kind of data set: Organ bath assay on isolated guinea pig atria (rate and force of contraction). Particulars: result in words, guinea pig atria. The protocol: Male guinea pigs, 3-4 weeks old, were killed by rapid cervical dislocation without induced anaesthesia. Then, the guinea pigs were dissected to isolate the atria which were immediately mounted vertically in an organ bath containing Krebs-Henseleit solution oxygenated with carbogen.
One gram tension was applied to the atria and the base line continuously adjusted until it was stable for 20 mins. The rate and force of contraction were recorded using Mac Lab equipment.
Test substances in DMSO were assayed to a maximum concentration of 50 µM at a final concentration of 2.5 % of DMSO.

The nature of data set [7]: Brine shrimp toxicity bioassay. It is filed as in vivo. Particulars: Artemia salina (brine shrimp), in vivo; 24 hours, 2% DMSO. The text has this:
The brine shrimp assay procedure determines LC50 values of active compounds. Activities of a broad range of known active compounds are manifested as toxicity to brine shrimp (Artemia salina Leach). There are many applications of the assay including analysis of toxic substances, anaesthetics, morphine-like substances and cocarcinogenicity of phorbol esters.
The method for testing solvent toxicity used was basically that reported by J L McLaughlin in Methods of Plant Biochemistry (1991), vol. 6 (K Hostettman, ed.), Academic Press, London, 1-32. DMSO solutions of the substances to be tested were added directly to the vials containing the brine shrimp. As the concentration of DMSO that we wished to use was higher than the recommended 1% v/v testing of the toxicity of the DMSO was therefore necessary. The concentrations of DMSO tested on the shrimp, along with the results from the assay which was done in duplicate are listed below.
Brine shrimp toxicity was assayed, except for some minor modifications, according to the method of McLaughlin et al as reported in Brine Shrimp: A convenient bioassay for active plant constituents, B N Meyer, N R Ferrigni, J E Putnam, L B Jacobsen, D E Nichols and J L McLaughlin in Planta Medica (1982), 45, 31-34 and Crown gall tumours on potato discs and brine shrimp lethality: Two simple bioassays for higher plant screening and fractionation. J L McLaughlin. Methods of Plant Biochemistry (1991), vol. 6 (K Hostettman, ed.), Academic Press, London, 1-32. Ten shrimp were transferred to each of the vials and the volume adjusted to 4.9 mL. Each dose was performed in triplicate, including the control. In quick succession, the appropriate volume of additional DMSO for each dose, required to achieve a final concentration of 2%, was added before the appropriate volume of test solution. The vials were gently mixed and the time noted. After 24 hours, the number of survivors were counted and % mortality was determined. The test compounds were assayed at concentrations of 100 µM, 25 µM, 5 µM, 1 µM and 0.2 µM (and where appropriate concentrations of 0.04 µM and 0.008 µM).
The brine shrimp were able to survive without food in the vials over the 24 hour period and were therefore not fed.
The dose-response curves were constructed using the Sigmaplot computer program and the LC50 value was calculated from the intersection point of the curve and the 50 % mortality line. The LC50 values were expressed in both µM and µg/mL.

For data set [8], the system named is brine shrimp (Artemia salina Leach). Particulars: values determined by Meyer et al. (1982); cited from earlier work.

Values joined by “and” are separate entries in the source; they are usually repeats but may differ in a detail not shown here. Identical values can stand only once.

Usually IC50 stands for the concentration that inhibits the measured activity by half. With `CCCCCCCCCC(=O)C(O)c1ccc(O)c(OC)c1` (stereo not drawn) [1-hydroxy-1-(4-hydroxy-3-methoxyphenyl)undecan-2-one], the activity at 10 µM in data set [1] is 83%. The “Cyclooxygenase activity % activity” value in data set [2] came to 16%. In data set [3], this compound gave an IC50 of 69.4 ± 2.6 µM.
Take `CCCCCCCCCCC(C)(O)CCc1ccc(O)c(OC)c1` (stereo not drawn) [3-methyl-1-(4-hydroxy-3-methoxyphenyl)tridecan-3-ol]: the activity at 10 µM in data set [1] was found to be 5%. For the same compound, inhibition in data set [3] was half-maximal at 75.3 ± 3.1 µM (IC50).
In data set [1], `CCCCCCCCC(C)(O)CCc1ccc(O)c(OC)c1` (stereo not drawn) [3-methyl-1-(4-hydroxy-3-methoxyphenyl)undecan-3-ol] returned an activity at 10 µM of 3%. The “Cyclooxygenase activity % activity” value in data set [2] was 15%. Besides, in data set [4], the “Number of capsaicin-sensitive cells responding” value was 0 out of 4 and the “Peak [Ca^2+]i (Average ±SD)” value turned out to be 0 nM. In data set [3], this compound returned an IC50 of 45.3 ± 1.6 µM.
In data set [3], `CC(=O)Oc1ccccc1C(=O)O` [Aspirin, reference compound] came in with an IC50 of 23.4 ± 1.7 µM.
By EC50 is commonly meant the concentration needed to bring the measured effect to its halfway point. A lower EC50 goes with greater potency. Regarding `CCCCCCCCCC(=O)CCc1ccc(O)c(OC)c1` [[8]-paradol, 1-(4-hydroxy-3-methoxyphenyl)dodecan-3-one, reference compound], the activity at 10 µM in data set [1] came to 81%. Also, the half-maximal effective concentration (EC50) in data set [5] (Rattus norvegicus, relaxation of small arteries (200-300 µm) precontracted with endothelin) was found to be 0.05 µM. Also, the “relaxation of rat mesenteric artery” value in data set [5] (result in words) is on record as “showed potency”. In addition, in data set [2], the “Cyclooxygenase activity % activity” value was 11%. In data set [6], the “FORCE OF CONTRACT^n” value is “inactive” and the “HEART RATE” value is “inactive”. In data set [4], the “Number of capsaicin-sensitive cells responding” value was determined as 1 and the “Peak [Ca^2+]i (Average ±SD)” value worked out at 200 nM.
Broadly, the LC50 is the concentration lethal to half of the exposed cells or organisms. Consider `COc1cc([C@@H]2c3cc4c(cc3[C@H](O)[C@H]3COC(=O)[C@H]23)OCO4)cc(OC)c1OC` [podophyllotoxin, reference compound], for which the 50% lethal concentration (LC50) at 24 h in data set [7] is 3.8 µM and 1.6 µg/mL. For the same compound, the LC50 in data set [8] is 5.8 µM.
